According to PubChem BioAssay (NCI):
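A five-concentration, 48-hour dose response in 96-well plates underlies each endpoint, interpolated linearly between surrounding concentrations. Abbreviation: GI50, concentration required for 50% inhibition of growth. TGI is the concentration that stops growth completely.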

How the values were obtained:
Experiment in all cases: growth of human tumour cells (NCI), 48 h
SK-OV-3 ovarian = tested on: SK-OV-3 ovarian
DU-145 prostate = tested on: DU-145 prostate
ACHN renal = tested on: ACHN renal
A498 renal = tested on: A498 renal
HT29 colon = tested on: HT29 colon
CAKI-1 renal = tested on: CAKI-1 renal
UO-31 renal = tested on: UO-31 renal
SW-620 colon = tested on: SW-620 colon
NCI-H226 lung = tested on: NCI-H226 lung
SK-MEL-5 melanoma = tested on: SK-MEL-5 melanoma
RXF 393 renal = tested on: RXF 393 renal
SK-MEL-2 melanoma = tested on: SK-MEL-2 melanoma
CCRF-CEM leukemia = tested on: CCRF-CEM leukemia
U251 CNS = tested on: U251 CNS
OVCAR-3 ovarian = tested on: OVCAR-3 ovarian
HCT-15 colon = tested on: HCT-15 colon
HCC-2998 colon = tested on: HCC-2998 colon
TK-10 renal = tested on: TK-10 renal
HOP-62 NSCLC = tested on: HOP-62 NSCLC
NCI-H460 lung = tested on: NCI-H460 lung
SF-295 CNS = tested on: SF-295 CNS
MDA-MB-231 breast = tested on: MDA-MB-231 breast
SF-539 CNS = tested on: SF-539 CNS
SF-268 CNS = tested on: SF-268 CNS
SK-MEL-28 melanoma = tested on: SK-MEL-28 melanoma
OVCAR-5 ovarian = tested on: OVCAR-5 ovarian
UACC-62 melanoma = tested on: UACC-62 melanoma
T-47D breast = tested on: T-47D breast
M14 melanoma = tested on: M14 melanoma
RPMI-8226 leukemia = tested on: RPMI-8226 leukemia
NCI-H522 lung = tested on: NCI-H522 lung
MOLT-4 leukemia = tested on: MOLT-4 leukemia
SNB-19 CNS = tested on: SNB-19 CNS
K-562 leukemia = tested on: K-562 leukemia
HL-60(TB) leukemia = tested on: HL-60(TB) leukemia
SN12C renal = tested on: SN12C renal
KM12 colon = tested on: KM12 colon
COLO 205 colon = tested on: COLO 205 colon
A549 NSCLC = tested on: A549 NSCLC
MALME-3M melanoma = tested on: MALME-3M melanoma
SNB-75 CNS = tested on: SNB-75 CNS
BT-549 breast = tested on: BT-549 breast
NCI-H23 lung = tested on: NCI-H23 lung
IGROV1 ovarian = tested on: IGROV1 ovarian
NCI/ADR-RES ovarian = tested on: NCI/ADR-RES ovarian
HS 578T breast = tested on: HS 578T breast
UACC-257 melanoma = tested on: UACC-257 melanoma
OVCAR-8 ovarian = tested on: OVCAR-8 ovarian
SR leukemia = tested on: SR leukemia
MDA-MB-435 = tested on: MDA-MB-435
786-0 renal = tested on: 786-0 renal
PC-3 prostate = tested on: PC-3 prostate

SMILES: Cc1cc(C)cc(NC2=C(Cl)C(=O)c3nc(C)ccc3C2=O)c1
- GI50 (SK-OV-3 ovarian): 14.3 µM
- TGI (SK-OV-3 ovarian): 27.7 µM
- GI50 (DU-145 prostate): 1.85 µM
- TGI (DU-145 prostate): 3.55 µM
- GI50 (ACHN renal): 1.78 µM
- TGI (ACHN renal): 3.4 µM
- GI50 (A498 renal): 14.3 µM
- TGI (A498 renal): 28.1 µM
- GI50 (HT29 colon): 3.66 µM
- TGI (HT29 colon): 19.2 µM
- GI50 (CAKI-1 renal): 1.59 µM
- TGI (CAKI-1 renal): 3.18 µM
- GI50 (UO-31 renal): 1.43 µM
- TGI (UO-31 renal): 2.87 µM
- GI50 (SW-620 colon): 2.07 µM
- TGI (SW-620 colon): 4.65 µM
- GI50 (NCI-H226 lung): 1.8 µM
- TGI (NCI-H226 lung): 4.58 µM
- GI50 (SK-MEL-5 melanoma): 1.65 µM
- TGI (SK-MEL-5 melanoma): 3.08 µM
- GI50 (RXF 393 renal): 1.41 µM
- TGI (RXF 393 renal): 2.74 µM
- GI50 (SK-MEL-2 melanoma): 2.88 µM
- TGI (SK-MEL-2 melanoma): 9.57 µM
- GI50 (CCRF-CEM leukemia): 2.09 µM
- TGI (CCRF-CEM leukemia): 5.78 µM
- GI50 (U251 CNS): 2.35 µM
- TGI (U251 CNS): 8.09 µM
- GI50 (OVCAR-3 ovarian): 0.405 µM
- TGI (OVCAR-3 ovarian): 1.47 µM
- GI50 (HCT-15 colon): 1.09 µM
- TGI (HCT-15 colon): 2.64 µM
- GI50 (HCC-2998 colon): 3.18 µM
- TGI (HCC-2998 colon): 10.5 µM
- GI50 (TK-10 renal): 2.21 µM
- TGI (TK-10 renal): 3.73 µM
- GI50 (HOP-62 NSCLC): 4.66 µM
- TGI (HOP-62 NSCLC): 19.7 µM
- GI50 (NCI-H460 lung): 4.2 µM
- TGI (NCI-H460 lung): 20.1 µM
- GI50 (SF-295 CNS): 4.58 µM
- TGI (SF-295 CNS): 16.3 µM
- GI50 (MDA-MB-231 breast): 1.68 µM
- TGI (MDA-MB-231 breast): 4.13 µM
- GI50 (SF-539 CNS): 1.76 µM
- TGI (SF-539 CNS): 3.25 µM
- GI50 (SF-268 CNS): 3.74 µM
- TGI (SF-268 CNS): 20.7 µM
- GI50 (SK-MEL-28 melanoma): 1.99 µM
- TGI (SK-MEL-28 melanoma): 3.94 µM
- GI50 (OVCAR-5 ovarian): 1.78 µM
- TGI (OVCAR-5 ovarian): 3.69 µM
- GI50 (UACC-62 melanoma): 2.63 µM
- TGI (UACC-62 melanoma): 7.42 µM
- GI50 (T-47D breast): 1.55 µM
- TGI (T-47D breast): 4.26 µM
- GI50 (M14 melanoma): 1.63 µM
- TGI (M14 melanoma): 3.07 µM
- GI50 (RPMI-8226 leukemia): 1.63 µM
- TGI (RPMI-8226 leukemia): 4.4 µM
- GI50 (NCI-H522 lung): 2.05 µM
- TGI (NCI-H522 lung): 5.29 µM
- GI50 (MOLT-4 leukemia): 1.6 µM
- TGI (MOLT-4 leukemia): 5.61 µM
- GI50 (SNB-19 CNS): 3.41 µM
- TGI (SNB-19 CNS): 24.4 µM
- GI50 (K-562 leukemia): 0.712 µM
- TGI (K-562 leukemia): 4.81 µM
- GI50 (HL-60(TB) leukemia): 1.55 µM
- TGI (HL-60(TB) leukemia): 3.85 µM
- GI50 (SN12C renal): 2 µM
- TGI (SN12C renal): 5.79 µM
- GI50 (KM12 colon): 5.6 µM
- TGI (KM12 colon): 20.7 µM
- GI50 (COLO 205 colon): 2.23 µM
- TGI (COLO 205 colon): 5.01 µM
- GI50 (A549 NSCLC): 4.37 µM
- TGI (A549 NSCLC): 19.1 µM
- GI50 (MALME-3M melanoma): 2.3 µM
- TGI (MALME-3M melanoma): 4.42 µM
- GI50 (SNB-75 CNS): 2.15 µM
- TGI (SNB-75 CNS): 6.48 µM
- GI50 (BT-549 breast): 1.41 µM
- TGI (BT-549 breast): 2.83 µM
- GI50 (NCI-H23 lung): 1.7 µM
- TGI (NCI-H23 lung): 4.59 µM
- GI50 (IGROV1 ovarian): 1.81 µM
- TGI (IGROV1 ovarian): 3.95 µM
- GI50 (NCI/ADR-RES ovarian): 2.06 µM
- TGI (NCI/ADR-RES ovarian): 6.79 µM
- GI50 (HS 578T breast): 2.24 µM
- TGI (HS 578T breast): 5.81 µM
- GI50 (UACC-257 melanoma): 1.64 µM
- TGI (UACC-257 melanoma): 3.12 µM
- GI50 (OVCAR-8 ovarian): 2.14 µM
- TGI (OVCAR-8 ovarian): 5.92 µM
- GI50 (SR leukemia): 1.22 µM
- TGI (SR leukemia): 3.96 µM
- GI50 (MDA-MB-435): 1.96 µM
- TGI (MDA-MB-435): 3.86 µM
- GI50 (786-0 renal): 1.7 µM
- TGI (786-0 renal): 3.42 µM
- GI50 (PC-3 prostate): 1.73 µM
- TGI (PC-3 prostate): 10.2 µM
